Measured values reported in patent US20240279236A1, “COMPOUNDS AND METHODS OF TREATING TUBERCULOSIS” (Fimbrion Therapeutics, Inc., priority 2021, published 2024).

System: WT Mtb Erdman strain
Test: Microplate Alamar Blue Assay (MABA), Mtb growth inhibition
Format: cell-based, Mycobacterium tuberculosis
Conditions: Mycobacterium tuberculosis, ERDMAN, 168 h, Middlebrook 7H9 media, 7 days at 37° C. in 5% CO2

CCc1nc(N[C@@H]2C[C@H]2c2ccccc2)c2cc(C)sc2n1 (racemic) [Example 1, 2-ethyl-6-methyl-N-((rac-1S,2R)-2-phenylcyclopropyl) thieno[2,3-d]pyrimidin-4-amine]
IC50: 240 nM

CCc1nc(NC[C@@H]2C[C@H]2c2ccccc2)c2cc(C)sc2n1 (racemic) [Example 84, 2-ethyl-6-methyl-N-(((1S,2S)-2-phenylcyclopropyl)methyl)thieno[2,3-d]pyrimidin-4-amine]
IC50: 7700 nM

CCc1nc(N[C@@H]2C[C@H]2c2ccccc2)c2ccsc2n1 (racemic) [Example 175, 2-ethyl-N-((rac-1R,2S)-2-phenylcyclopropyl) thieno[2,3-d]pyrimidin-4-amine]
IC50: < 240 nM

CCc1nc(N[C@H]2C[C@@H]2c2ccccc2)c2cc(C)sc2n1 [Example 2, 2-ethyl-6-methyl-N-((1S,2R)-2-phenylcyclopropyl) thieno[2,3-d]pyrimidin-4-amine]
IC50: 3100 nM

CCc1nc(NCCCc2ccc(C(F)(F)F)cc2)c2cc(C)sc2n1 [Example 3, 2-ethyl-6-methyl-N-(3-(4-(trifluoromethyl)phenyl)propyl)thieno [2,3-d]pyrimidin-4-amine]
IC50: 280 nM

CCc1nc(N[C@@H]2C[C@H]2c2ccc(F)c(F)c2)c2cc(C)sc2n1 [Example 4, N-((1R,2S)-2-(3,4-difluorophenyl)cyclopropyl)-2-ethyl-6-methylthieno[2,3-d]pyrimidin-4-amine]
IC50: 300 nM

CCc1nc(NC2CC(c3ccccc3)C2)c2cc(C)sc2n1 (centres unmarked) [Example 5, 2-ethyl-6-methyl-N-(3-phenylcyclobutyl) thieno[2,3-d]pyrimidin-4-amine]
IC50: 2100 nM

CCc1nc(N[C@@H]2C[C@H]2c2ccccc2)c2cc(C)sc2n1 [Example 6, 2-ethyl-6-methyl-N-((1R,2S)-2-phenylcyclopropyl) thieno[2,3-d]pyrimidin-4-amine]
IC50: 440 nM

CCc1nc(NCCc2ccc(Cl)cc2)c2cc(C)sc2n1 [Example 7, N-(4-chlorophenethyl)-2-ethyl-6-methylthieno[2,3-d]pyrimidin-4-amine]
IC50: 1100 nM

CCc1nc(NCCc2cccc(Cl)c2)c2cc(C)sc2n1 [Example 8, N-(3-chlorophenethyl)-2-ethyl-6-methylthieno[2,3-d]pyrimidin-4-amine]
IC50: 690 nM

CCc1nc(NCCc2ccccc2Cl)c2cc(C)sc2n1 [Example 9, N-(2-chlorophenethyl)-2-ethyl-6-methylthieno[2,3-d]pyrimidin-4-amine]
IC50: 2000 nM

CCc1nc(NCCc2ccc3ccccc3c2)c2cc(C)sc2n1 [Example 10, 2-ethyl-6-methyl-N-(2-(naphthalen-2-yl)ethyl)thieno[2,3-d]pyrimidin-4-amine]
IC50: 450 nM

CCc1nc(NCCOc2ccccc2)c2cc(C)sc2n1 [Example 11, 2-ethyl-6-methyl-N-(2-phenoxyethyl)thieno [2,3-d]pyrimidin-4-amine]
IC50: 2800 nM

CCc1nc(NCCc2ccncc2)c2cc(C)sc2n1 [Example 12, 2-ethyl-6-methyl-N-(2-(pyridin-4-yl)ethyl)thieno[2,3-d]pyrimidin-4-amine]
IC50: > 10000 nM

CCc1nc(NCCc2cccnc2)c2cc(C)sc2n1 [Example 13, 2-ethyl-6-methyl-N-(2-(pyridin-3-yl)ethyl)thieno[2,3-d]pyrimidin-4-amine]
IC50: > 10000 nM

CCc1nc(NCCc2ccccn2)c2cc(C)sc2n1 [Example 14, 2-ethyl-6-methyl-N-(2-(pyridin-2-yl)ethyl)thieno[2,3-d]pyrimidin-4-amine]
IC50: > 10000 nM

CCc1nc(NCCc2ccc(OC)cc2)c2cc(C)sc2n1 [Example 15, 2-ethyl-N-(4-methoxyphenethyl)-6-methylthieno[2,3-d]pyrimidin-4-amine]
IC50: 2100 nM

CCc1nc(NCCc2ccc([N+](=O)[O-])cc2)c2cc(C)sc2n1 [Example 16, 2-ethyl-6-methyl-N-(4-nitrophenethyl)thieno [2,3-d]pyrimidin-4-amine]
IC50: 9000 nM

CCc1nc(N(C)CCCc2ccccc2)c2cc(C)sc2n1 [Example 17, 2-ethyl-N,6-dimethyl-N-(3-phenylpropyl)thieno [2,3-d]pyrimidin-4-amine]
IC50: 7600 nM

CCc1nc(NCCCc2ccc(OC)cc2)c2cc(C)sc2n1 [Example 18, 2-ethyl-N-(3-(4-methoxyphenyl)propyl)-6-methylthieno[2,3-d]pyrimidin-4-amine]
IC50: 60 nM

CCc1nc(NCCc2ccc(C(F)(F)F)cc2)c2cc(C)sc2n1 [Example 19, 2-ethyl-6-methyl-N-(4-(trifluoromethyl)phenethyl)thieno[2,3-d]pyrimidin-4-amine]
IC50: 2900 nM

CCc1nc(NCCc2cccc(C(F)(F)F)c2)c2cc(C)sc2n1 [Example 20, 2-ethyl-6-methyl-N-(3-(trifluoromethyl)phenethyl)thieno[2,3-d]pyrimidin-4-amine]
IC50: 4900 nM

CCc1nc(NCCc2ccccc2C(F)(F)F)c2cc(C)sc2n1 [Example 21, 2-ethyl-6-methyl-N-(2-(trifluoromethyl)phenethyl)thieno[2,3-d]pyrimidin-4-amine]
IC50: > 10000 nM

CCc1nc(NCCCc2ccc(OC)c(OC)c2)c2cc(C)sc2n1 [Example 22, N-(3-(3,4-dimethoxyphenyl)propyl)-2-ethyl-6-methylthieno[2,3-d]pyrimidin-4-amine]
IC50: 770 nM

CCc1nc(NC(C)CCc2ccccc2)c2cc(C)sc2n1 (centres unmarked) [Example 23, 2-ethyl-6-methyl-N-(4-phenylbutan-2-yl)thieno[2,3-d]pyrimidin-4-amine]
IC50: 8300 nM

CCc1nc(NCCCc2ccco2)c2cc(C)sc2n1 [Example 24, 2-ethyl-N-(3-(furan-2-yl)propyl)-6-methylthieno[2,3-d]pyrimidin-4-amine]
IC50: 1000 nM

CCc1nc(NCCCCc2ccccc2)c2cc(C)sc2n1 [Example 25, 2-ethyl-6-methyl-N-(4-phenylbutyl)thieno [2,3-d]pyrimidin-4-amine]
IC50: 120 nM

CCc1nc(NCCc2ccc(-c3ccccc3)cc2)c2cc(C)sc2n1 [Example 26, N-(2-([1,1′-biphenyl]-4-yl)ethyl)-2-ethyl-6-methylthieno[2,3-d]pyrimidin-4-amine]
IC50: 1200 nM

CCc1nc(NCCCn2cccc2)c2cc(C)sc2n1 [Example 27, N-(3-(1H-pyrrol-1-yl)propyl)-2-ethyl-6-methylthieno[2,3-d]pyrimidin-4-amine]
IC50: 210 nM

Cc1cc2c(N[C@@H]3C[C@H]3c3ccc(F)c(F)c3)nc(C(F)(F)F)nc2s1 [Example 28, N-((1R,2S)-2-(3,4-difluorophenyl)cyclopropyl)-6-methyl-2-(trifluoromethyl) thieno [2,3-d]pyrimidin-4-amine]
IC50: 2100 nM

COc1ccc(CCCNc2nc(-c3ccccn3)nc3sccc23)cc1 [Example 29, N-(3-(4-methoxyphenyl)propyl)-2-(pyridin-2-yl)thieno[2,3-d]pyrimidin-4-amine]
IC50: 2300 nM

FC(F)(F)c1ccc(CCCNc2nc(-c3ccccn3)nc3sccc23)cc1 [Example 30, 2-(pyridin-2-yl)-N-(3-(4-(trifluoromethyl)phenyl)propyl)thieno[2,3-d]pyrimidin-4-amine]
IC50: 2200 nM

Fc1ccc([C@@H]2C[C@H]2Nc2nc(-c3ccccn3)nc3sccc23)cc1F [Example 31, N-((1R,2S)-2-(3,4-difluorophenyl)cyclopropyl)-2-(pyridin-2-yl)thieno[2,3-d]pyrimidin-4-amine]
IC50: 7100 nM

Fc1ccc([C@@H]2C[C@H]2Nc2nc(-c3ccccn3)nc3sc(Cl)cc23)cc1F [Example 32, 6-chloro-N-((1R,2S)-2-(3,4-difluorophenyl)cyclopropyl)-2-(pyridin-2-yl)thieno[2,3-d]pyrimidin-4-amine]
IC50: 3500 nM

Cc1cc2c(N[C@@H]3C[C@H]3c3ccc(F)c(F)c3)nc(-c3ccccn3)nc2s1 [Example 33, N-((1R,2S)-2-(3,4-difluorophenyl)cyclopropyl)-6-methyl-2-(pyridin-2-yl)thieno[2,3-d]pyrimidin-4-amine]
IC50: 4300 nM

CCc1nc(NCCCc2ccc(OC(F)(F)F)cc2)c2cc(C)sc2n1 [Example 34, 2-ethyl-6-methyl-N-(3-(4-(trifluoromethoxy)phenyl)propyl)thieno[2,3-d]pyrimidin-4-amine]
IC50: 270 nM

FC(F)(F)Oc1ccc(CCCNc2nc(-c3ccccn3)nc3sccc23)cc1 [Example 35, 2-(pyridin-2-yl)-N-(3-(4-(trifluoromethoxy)phenyl)propyl)thieno[2,3-d]pyrimidin-4-amine]
IC50: 2200 nM

Cc1cc2c(NCCCc3ccc(OC(F)(F)F)cc3)nc(C(F)(F)F)nc2s1 [Example 36, 6-methyl-N-(3-(4-(trifluoromethoxy)phenyl)propyl)-2-(trifluoromethyl)thieno [2,3-d]pyrimidin-4-amine]
IC50: 2100 nM

CCc1nc(NCCc2cccc(OC)c2)c2cc(C)sc2n1 [Example 37, 2-ethyl-N-(3-methoxyphenethyl)-6-methylthieno[2,3-d]pyrimidin-4-amine]
IC50: > 7900 nM

Cc1cc2c(N[C@@H]3C[C@H]3c3ccc(F)c(F)c3)nc(-c3ccncn3)nc2s1 [Example 38, N-((1R,2S)-2-(3,4-difluorophenyl)cyclopropyl)-6-methyl-2-(pyrimidin-4-yl)thieno[2,3-d]pyrimidin-4-amine]
IC50: 2000 nM

CCc1nc(NCCc2cccc([N+](=O)[O-])c2)c2cc(C)sc2n1 [Example 39, 2-ethyl-6-methyl-N-(3-nitrophenethyl)thieno [2,3-d]pyrimidin-4-amine]
IC50: > 8800 nM

CCc1nc(NCCOc2ccc(OC)cc2)c2cc(C)sc2n1 [Example 40, 2-ethyl-N-(2-(4-methoxyphenoxy)ethyl)-6-methylthieno[2,3-d]pyrimidin-4-amine]
IC50: 3600 nM

Cc1cc2c(N[C@@H]3C[C@H]3c3ccc(F)c(F)c3)nc(-c3ncccn3)nc2s1 [Example 41, N-((1R,2S)-2-(3,4-difluorophenyl)cyclopropyl)-6-methyl-2-(pyrimidin-2-yl)thieno[2,3-d]pyrimidin-4-amine]
IC50: > 10000 nM

Cc1cc2c(N[C@@H]3C[C@H]3c3ccc(F)c(F)c3)nc(-c3nccs3)nc2s1 [Example 42, N-((1R,2S)-2-(3,4-difluorophenyl)cyclopropyl)-6-methyl-2-(thiazol-2-yl)thieno[2,3-d]pyrimidin-4-amine]
IC50: 8100 nM
